Our source for the IC50 values is patent US11548899B2, “Fused 1,4-oxazepines and related analogs as BET bromodomain inhibitors” (THE REGENTS OF THE UNIVERSITY OF MICHIGAN, priority 2016, dated 2023).

Test [1] deals with RS4-11. In words: Cell growth inhibition, 4-day proliferation assay, RS4-11. Format: cell-based. The note with it: read-out: Cell Viability (IC50, μM) RS4-11. The protocol:
(§1) The effect of representative Compounds of the Disclosure on cell viability was determined in a 4-day proliferation assay. Cells were maintained in the appropriate culture medium with 10% FBS at 37° C. and an atmosphere of 5% CO2. All the cell lines were used within three months of thawing fresh vials.
(§2) Cells were seeded in 96-well flat bottom (Corning COSTAR, Corning, N.Y., cat #3595) or white opaque cell culture plates (BD Falcon, cat #353296) at a density of 3,000-10,000 cells/well in 75 μl of culture medium. Compounds were serially diluted in the appropriate medium, and 75 μl of the diluted compounds were added to the appropriate wells of the cell plate. After the addition of compounds, the cells were incubated at 37° C. in an atmosphere of 5% CO2 for 4 days. Cell viability was determined using the CellTiter-Glo® Luminescent Cell Viability Assay Kit (Promega, Madison, Wis.) for leukemia cells and WST (2-(2-methoxy-4-nitrophenyl)-3-(4-nitrophenyl)-5-(2,4-disulfophenyl)-2H-tetrazolium, monosodium salt) Cell Counting-8 Kit (Dojindo Molecular Technologies, Inc., Rockville, Md.) for adhenrent cells according to the manufacturers' instructions. […]
(§3) For CellTiter-Glo assay (suspension cells), 100 μl of CellTiter-Glo® Reagent was added to each well, and then the plates were incubated at room temperature for 10-20 minutes. The luminescent signal was measured using a Tecan Infinite M1000 multimode microplate reader (Tecan, Morrisville, N.C.). The readings were normalized to the DMSO-treated cells and the IC50 was calculated by nonlinear regression (four parameters sigmoid fitted with variable slope, least squares fit, and no constraint) analysis using the GraphPad Prism 5 software. See US 2014/0256706.

Test [2] has as its target T1, recombinant BRD4 BD1 (Homo sapiens, UniProt O60885).
T1 construct: recombinant BRD4 BD1 and BRD4 BD2 proteins
The test can be described thus: Competitive fluorescence-polarization (FP) binding assay, BRD4 BD1.
Description: Fluorescence Polarization (FP) competitive binding studies were carried out using a FAM labeled fluorescent probe, see Cpd. […] Equilibrium dissociation constants (Kd) values of the fluorescent probe to BRD4 BD1 and BD2 proteins were determined from protein saturation experiments by monitoring the total fluorescence polarization of mixtures composed with the fluorescent probe at a fixed concentration and proteins with increasing concentrations up to full saturation. […] Plates were incubated at room temperature for 30 minutes with gentle shaking to assure equilibrium.
The IC50 and Ki values of compounds were determined in a competitive binding experiment. […] Mixtures of 10 μl of the tested compounds in assay buffer with 40% Ethylene Glycol and 190 μl of preincubated protein/probe complex solution in the assay buffer (100 mM potassium phosphate, pH 6.5, 0.01% Triton X-100) were added into assay plates which were incubated at room temperature for 30 minutes with gentle shaking. Final concentrations of proteins were 10 and 6 nM in assays for BRD4 BD1 and BD2, respectively. […] FP values were measured as described above. IC50 values were determined by nonlinear regression fitting of the competition curves.

Test [3] has as its system MOLM-13. In words: Cell growth inhibition, 4-day proliferation assay, MOLM-13. The note with it: read-out: Cell Viability (IC50, μM) MOLM-13. Format: cell-based. The procedure: as §1, §2, §3
For test [4], the target named is T2, recombinant BRD4 BD2 (Homo sapiens, UniProt O60885).
T2 construct: recombinant BRD4 BD1 and BRD4 BD2 proteins
In words: Competitive fluorescence-polarization (FP) binding assay, BRD4 BD2. The note with it: protein 6 nM, probe 1.5 nM.
Description: Fluorescence Polarization (FP) competitive binding studies were carried out using a FAM labeled fluorescent probe, see Cpd. […] Equilibrium dissociation constants (Kd) values of the fluorescent probe to BRD4 BD1 and BD2 proteins were determined from protein saturation experiments by monitoring the total fluorescence polarization of mixtures composed with the fluorescent probe at a fixed concentration and proteins with increasing concentrations up to full saturation. Serial dilutions of testing proteins were mixed with the fluorescent probe to a final volume of 200 μl in the assay buffer (100 mM phosphate buffer, pH=6.5, 0.01% Triton X-100 (Sigma, 282103) being added right before assays). Final fluorescent probe concentration was 1.5 nM for both proteins. Plates were incubated at room temperature for 30 minutes with gentle shaking to assure equilibrium. FP values in millipolarization units (mP) were measured using the Infinite M-1000 plate reader (Tecan U.S., Research Triangle Park, N.C.) in Microfluor 1 96-well, black, round-bottom plates (Thermo Scientific, Waltham, Mass.) at an excitation wavelength of 485 nm and an emission wavelength of 530 nm.
The IC50 and Ki values of compounds were determined in a competitive binding experiment. […] Mixtures of 10 μl of the tested compounds in assay buffer with 40% Ethylene Glycol and 190 μl of preincubated protein/probe complex solution in the assay buffer (100 mM potassium phosphate, pH 6.5, 0.01% Triton X-100) were added into assay plates which were incubated at room temperature for 30 minutes with gentle shaking. Final concentrations of proteins were 10 and 6 nM in assays for BRD4 BD1 and BD2, respectively. Final probe concentration is 1.5 nM in both assays. […] FP values were measured as described above. IC50 values were determined by nonlinear regression fitting of the competition curves.

Setting [5] is: Homo sapiens, RS4-11, 96 h, 4 days incubation, RS4-11 cells.
Where [6] appears, read: FP competitive binding, protein 10 nM, probe 1.5 nM, read-out: IC50 (nM) BRD4 BD1.
Setting [7] is: Homo sapiens, MOLM-13, 96 h, 4 days incubation, MOLM-13 cells.
The mark [8] stands for this setting: 4 days incubation, RS4-11 cells.
Setting [9] is: 4 days incubation, MOLM-13 cells.

Values joined by “and” are separate entries in the source; they are usually repeats but may differ in a detail not shown here. Equal values may be shown once. Read-outs that look alike come from different tables or passages of the source.

As a reminder, the IC50 is the concentration needed to halve the response being measured. `Cc1nnc2n1-c1sc(-c3cnn(C)c3)c(Cc3ccccc3)c1COC2` [Cpd. No. 92, 3-benzyl-9-methyl-2-(1-methyl-H-pyrazol-4-yl)-4H,6H-thieno[2,3-e][1,2,4]triazolo[3,4-c][1,4]oxazepine]: the IC50 in test [1] (setting [5]) amounted to 1.6 µM; in test [2] (setting [6]), 211 nM; in test [3] (setting [7]) it was 1.6 µM.
Regarding `Cc1sc2c(c1Cc1ccccc1)CN(C(=O)OCc1ccccc1)[C@@H](C)c1nnc(C)n1-2` [Cpd. No. 12, benzyl (S)-3-benzyl-2,6,9-trimethyl-4H-thieno[3,2-f][1,2,4]triazolo[4,3-a][1,4]diazepine-5(6H)-carboxylate], the IC50 in test [1] (setting [5]) was 4.7 µM; in test [2] (setting [6]), 371 nM; in test [3] (setting [7]), 4 µM; in test [4], 328 nM and 379 nM.
In the case of `Cc1nnc2n1-c1sc(C#Cc3cnn(C)c3)c(Cc3ccccc3)c1CO[C@H]2C` [Cpd. No. 85, (S)-3-benzyl-6,9-dimethyl-2-((1-methyl-1H-pyrazol-4-yl)ethynyl)-4,6-dihydrothieno[2,3-e][1,2,4]triazolo[3,4-c][1,4]oxazepine], the IC50 in test [1] (setting [8]) is 0.12 µM; in test [1] (setting [5]) it was 0.14 µM; in test [2] (setting [6]), 7.3 nM and 8.1 nM; in test [3] (setting [9]) it was 0.1 µM; in test [3] (setting [7]), 0.16 µM; in test [4], 48.3 nM and 60.3 nM.
`Cc1nnc2n1-c1sc(C#CCCO)c(Cc3ccccc3)c1COC2` [Cpd. No. 96, 4-(3-benzyl-9-methyl-4H,6H-thieno[2,3-e][1,2,4]triazolo[3,4-c][1,4]oxazepin-2-yl)but-3-yn-1-ol]: the IC50 in test [1] (setting [8]) is 0.34 µM; in test [1] (setting [5]) it was 0.4 µM; in test [3] (setting [9]), 0.25 µM; in test [3] (setting [7]) it was 0.3 µM.
With `Cc1nnc2n1-c1sc(C#Cc3cccnc3)c(Cc3ccccc3)c1COC2` [Cpd. No. 88, 3-benzyl-9-methyl-2-(pyridin-3-ylethynyl)-4,6-dihydrothieno[2,3-e][1,2,4]triazolo[3,4-c][1,4]oxazepine], the half-inhibitory concentration (IC50) in test [1] (Homo sapiens, RS4-11, 96 h) is 0.25 µM; in test [3] (Homo sapiens, MOLM-13, 96 h) it was 0.12 µM.
For the molecule `Cc1sc2c(c1Cn1ccc3ccccc31)COCc1nnc(C)n1-2` [Cpd. No. 106, 3-((1H-indol-1-yl)methyl)-2,9-dimethyl-4H,6H-thieno[2,3-e][1,2,4]triazolo[3,4-c][1,4]oxazepine], the values for the concentration for half-maximal inhibition (IC50) in test [1] (setting [5]), in test [2] (setting [6]) and in test [3] (setting [7]) were 1.5 µM, 283 nM and 2.6 µM, respectively.
In the case of `Cc1sc2c(c1Cc1cccc(C#N)c1)COCc1nnc(C)n1-2` [Cpd. No. 101, 3-(3-cyanobenzyl)-2,9-dimethyl-4H,6H-thieno[2,3-e][1,2,4]triazolo[3,4-c][1,4]oxazepine], the IC50 in test [1] (setting [5]) was 3.6 µM; in test [2] (setting [6]), 832 nM; in test [3] (setting [7]), above 5 µM.
Taken in the same sequence, the figures for `Cc1sc2c(c1Cc1cccc(F)c1)COCc1nnc(C)n1-2` [Cpd. No. 100, 3-(3-fluorobenzyl)-2,9-dimethyl-4H,6H-thieno[2,3-e][1,2,4]triazolo[3,4-c][1,4]oxazepine] were 2.3 µM, 208 nM and 2.4 µM.
Consider `Cc1nnc2n1-c1sc(CCCCO)c(Cc3ccccc3)c1COC2` [Cpd. No. 99, 4-(3-benzyl-9-methyl-4H,6H-thieno[2,3-e][1,2,4]triazolo[3,4-c][1,4]oxazepin-2-yl)butan-1-ol], for which the figures for the IC50 in test [1] (setting [5]), in test [2] (IC50 (nM) BRD4 BD1) and in test [3] (setting [7]) were 2.2 µM, 367 nM and 2.9 µM, respectively.
Take `Cc1sc2c(c1Cc1ccc(F)cc1)COCc1nnc(C)n1-2` [Cpd. No. 103, 3-(4-fluorobenzyl)-2,9-dimethyl-4H,6H-thieno[2,3-e][1,2,4]triazolo[3,4-c][1,4]oxazepine]: the IC50 in test [1] (setting [8]) was 0.95 µM; in test [1] (setting [5]), 1 µM; in test [2] (setting [6]), 115 nM and 70.4 nM; in test [3] (setting [9]) it was 0.67 µM; in test [3] (setting [7]), 1.1 µM; in test [4] it was 213 nM.
Consider `Cc1sc2c(c1Cc1ccccc1F)COCc1nnc(C)n1-2` [Cpd. No. 102, 3-(2-fluorobenzyl)-2,9-dimethyl-4H,6H-thieno[2,3-e][1,2,4]triazolo[3,4-c][1,4]oxazepine], for which the IC50 was 2.6 µM in test [1] (setting [5]), 222 nM in test [2] (setting [6]) and 3.9 µM in test [3] (setting [7]).
Turning to `Cc1sc2c(c1Nc1ccccc1)COCc1nnc(C)n1-2` [Cpd. No. 6, 2,9-dimethyl-N-phenyl-4H,6H-thieno[2,3-e][1,2,4]triazolo[3,4-c][1,4]oxazepin-3-amine], the IC50 in test [1] (Homo sapiens, RS4-11, 96 h) is 4.5 µM; in test [2] (setting [6]) it was 317 nM and 629 nM; in test [3] (Homo sapiens, MOLM-13, 96 h) it was above 5 µM; in test [4], 346 nM and 457 nM.
In the case of `Cc1nnc2n1-c1sc(-c3cn[nH]c3)c(Cc3ccccc3)c1COC2` [Cpd. No. 91, 3-benzyl-9-methyl-2-(1H-pyrazol-4-yl)-4H,6H-thieno[2,3-e][1,2,4]triazolo[3,4-c][1,4]oxazepine], the half-inhibitory concentration (IC50) in test [1] (setting [5]) stood at 1.2 µM; in test [2] (setting [6]), 153 nM; in test [3] (setting [7]), 1.2 µM.
Turning to `Cc1sc2c(c1Cc1ccccc1)COCc1nnc(C)n1-2` [Cpd. No. 4, 3-benzyl-2,9-dimethyl-4H,6H-thieno[2,3-e][1,2,4]triazolo[3,4-c][1,4]oxazepine], the figures for the IC50 in test [1] (setting [5]), in test [3] (setting [9]) and in test [3] (setting [7]) were 1.7 µM, 0.9 µM and 0.8 µM, respectively.
For the molecule `Cc1sc2c(c1Cc1ccccc1)CNCc1nnc(C)n1-2` [Cpd. No. 15, 3-benzyl-2,9-dimethyl-5,6-dihydro-4H-thieno[3,2-f][1,2,4]triazolo[4,3-a][1,4]diazepine], the IC50 in test [1] (setting [5]) was 2.7 µM; in test [2] (setting [6]) it was 531 nM and 751 nM; in test [3] (setting [7]), 2 µM; in test [4] it was 102 nM and 111 nM.
`Cc1sc2c(c1Cc1ccccc1)COC(C)c1nnc(C)n1-2` (stereo not shown) [Cpd. No. 109, 3-benzyl-2,6,9-trimethyl-4H,6H-thieno[2,3-e][1,2,4]triazolo[3,4-c][1,4]oxazepine]: the IC50 in test [1] (setting [5]) was 1 µM; in test [2] (setting [6]), 99.6 nM and 93.8 nM; in test [3] (setting [9]), 0.81 µM; in test [3] (setting [7]) it was 1.1 µM; in test [4], 125 nM and 120 nM.
Turning to `Cc1nnc2n1-c1sc(C#Cc3cncn3C)c(Cc3ccccc3)c1COC2` [Cpd. No. 86, 3-benzyl-9-methyl-2-((1-methyl-H-imidazol-5-yl)ethynyl)-4,6-dihydrothieno[2,3-e][1,2,4]triazolo[3,4-c][1,4]oxazepine], the 50% inhibitory concentration (IC50) in test [1] (setting [5]) was 0.2 µM; in test [3] (setting [7]), 0.14 µM.
As to `Cc1sc2c(c1Cc1ccccc1)CN(C(=O)OCc1ccccc1)Cc1nnc(C)n1-2` [Cpd. No. 14, benzyl 3-benzyl-2,9-dimethyl-4H-thieno[3,2-f][1,2,4]triazolo[4,3-a][1,4]diazepine-5(6H)-carboxylate], the IC50 in test [1] (setting [5]) is 2.4 µM; in test [2] (setting [6]), 85 nM and 112 nM; in test [3] (setting [7]), 1.9 µM; in test [4], 118 nM and 145 nM.
With `Cc1nnc2n1-c1sc(C#Cc3ccc(N)nc3)c(Cc3ccccc3)c1COC2` [Cpd. No. 89, 5-((3-benzyl-9-methyl-4,6-dihydrothieno[2,3-e][1,2,4]triazolo[3,4-c][1,4]oxazepin-2-yl)ethynyl)pyridin-2-amine], the IC50 was 0.62 µM in test [1] (setting [5]), 8.7 nM in test [2] (setting [6]), 0.28 µM in test [3] (setting [7]) and 315 nM in test [4].
In the case of `Cc1nnc2n1-c1sc(C#Cc3ccncc3)c(Cc3ccccc3)c1COC2` [Cpd. No. 87, 3-benzyl-9-methyl-2-(pyridin-4-ylethynyl)-4,6-dihydrothieno[2,3-e][1,2,4]triazolo[3,4-c][1,4]oxazepine], the IC50 in test [1] (setting [5]) is 0.21 µM; in test [3] (setting [7]), 0.14 µM.
With `Cc1sc2c(c1Nc1cc(C3CC3)nn1C)COCc1nnc(C)n1-2` [Cpd. No. 7, N-(3-cyclopropyl-1-methyl-H-pyrazol-5-yl)-2,9-dimethyl-4H,6H-thieno[2,3-e][1,2,4]triazolo[3,4-c][1,4]oxazepin-3-amine], the IC50 in test [1] (setting [5]) was 4.2 µM; in test [2] (setting [6]), 171 nM and 311 nM; in test [3] (setting [7]), 2.8 µM; in test [4], 1160 nM and 1260 nM.
Consider `Cc1nnc2n1-c1sc(C#N)c(Cc3ccccc3)c1COC2` [Cpd. No. 110, 3-benzyl-9-methyl-4H,6H-thieno[2,3-e][1,2,4]triazolo[3,4-c][1,4]oxazepine-2-carbonitrile], for which the IC50 in test [1] (setting [5]) was 3.5 µM; in test [2] (setting [6]), 634 nM; in test [3] (setting [7]), 3.8 µM; in test [4], 2320 nM.
